# Laboratory results reported in PMC6484020, “Discovery of selective activators of PRC2 mutant EED-I363M” (Scientific Reports, 2019).
# Entries after “also recorded” stand apart in the source; their conditions may differ. Where a SMILES comes first, the peptide text is derived from it. [ ]: non-standard residue; d: D form. Lys(Me3) = C[N+](C)(C)CCCC[C@H](N)C(=O)O
# How the values were obtained:
# [1] = molecular target: T1, PRC2-EED-I363M (EED/EZH2/SUZ12) (Homo sapiens, UniProt O75530+Q15910, I363M); assay: Methyltransferase scintillation proximity assay, H3 (21-44) peptide substrate; type: biochemical; conditions: for EC50: 20 nM enzyme, 5 µM 3H-SAM, 2 µM biotin-H3 (21-44), 30 min, 23 °C, read-out: EC50 for activation of PRC2-EED-I363M; for EC50 / effect on catalytic activity of PRC2-EED-I363M: compound up to 100 µM; for increase of PRC2-EED-I363M kcat values: 20 µM compound, peptide as substrate; for effect on catalytic activity of PRC2-EED-I363M: H3 peptide substrate, normalized to activity without compound; for kcat, H3(21–44), PRC2-EED-I363M: in the presence of 20 µM compound, peptide substrate, mean ± SD, n = 3
# T1 construct: the full lengths of two components of the PRC2 complex, EED(1–441) and EZH2(1–751); EED(1–441) and EZH2(1–751) were cloned into pFastBac-Dual; made in house; host or cells: Sf9 insect cells (baculovirus co-infection)
# T1 sequence (O75530 whole entry I363M): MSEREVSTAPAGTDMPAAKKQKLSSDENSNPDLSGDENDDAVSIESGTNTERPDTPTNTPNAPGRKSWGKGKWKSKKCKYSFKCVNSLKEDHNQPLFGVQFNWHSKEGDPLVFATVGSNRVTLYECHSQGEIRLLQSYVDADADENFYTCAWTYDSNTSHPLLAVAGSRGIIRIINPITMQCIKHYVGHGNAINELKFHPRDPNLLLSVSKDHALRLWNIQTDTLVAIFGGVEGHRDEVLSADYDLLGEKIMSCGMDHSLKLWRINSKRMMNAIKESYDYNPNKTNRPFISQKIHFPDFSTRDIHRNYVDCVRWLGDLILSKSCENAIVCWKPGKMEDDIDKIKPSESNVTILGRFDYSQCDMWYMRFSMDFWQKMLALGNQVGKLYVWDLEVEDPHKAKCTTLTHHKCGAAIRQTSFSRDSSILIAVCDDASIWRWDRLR
# T1 sequence (Q15910 1-751 isoform Q15910-2, stated change not applied): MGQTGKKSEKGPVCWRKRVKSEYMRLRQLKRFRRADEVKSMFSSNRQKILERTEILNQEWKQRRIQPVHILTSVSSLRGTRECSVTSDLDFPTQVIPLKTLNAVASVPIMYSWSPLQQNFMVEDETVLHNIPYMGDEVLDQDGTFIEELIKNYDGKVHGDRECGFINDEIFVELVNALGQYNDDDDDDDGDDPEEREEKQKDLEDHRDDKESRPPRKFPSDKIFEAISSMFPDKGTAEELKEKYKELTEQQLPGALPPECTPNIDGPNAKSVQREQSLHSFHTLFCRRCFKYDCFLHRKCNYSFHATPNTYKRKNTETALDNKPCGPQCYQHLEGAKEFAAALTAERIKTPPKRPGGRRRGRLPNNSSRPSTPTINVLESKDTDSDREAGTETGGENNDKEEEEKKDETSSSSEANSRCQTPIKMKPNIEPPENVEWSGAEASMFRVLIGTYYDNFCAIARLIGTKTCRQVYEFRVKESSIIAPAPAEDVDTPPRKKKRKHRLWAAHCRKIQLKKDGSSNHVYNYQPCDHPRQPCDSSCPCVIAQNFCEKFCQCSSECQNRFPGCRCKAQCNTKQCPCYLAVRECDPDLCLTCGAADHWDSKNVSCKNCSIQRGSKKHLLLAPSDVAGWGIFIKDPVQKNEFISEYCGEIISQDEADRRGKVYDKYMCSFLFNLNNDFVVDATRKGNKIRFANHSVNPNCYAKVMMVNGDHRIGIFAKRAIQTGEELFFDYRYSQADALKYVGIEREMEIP
# T1 sequence (Q15022 whole entry partner): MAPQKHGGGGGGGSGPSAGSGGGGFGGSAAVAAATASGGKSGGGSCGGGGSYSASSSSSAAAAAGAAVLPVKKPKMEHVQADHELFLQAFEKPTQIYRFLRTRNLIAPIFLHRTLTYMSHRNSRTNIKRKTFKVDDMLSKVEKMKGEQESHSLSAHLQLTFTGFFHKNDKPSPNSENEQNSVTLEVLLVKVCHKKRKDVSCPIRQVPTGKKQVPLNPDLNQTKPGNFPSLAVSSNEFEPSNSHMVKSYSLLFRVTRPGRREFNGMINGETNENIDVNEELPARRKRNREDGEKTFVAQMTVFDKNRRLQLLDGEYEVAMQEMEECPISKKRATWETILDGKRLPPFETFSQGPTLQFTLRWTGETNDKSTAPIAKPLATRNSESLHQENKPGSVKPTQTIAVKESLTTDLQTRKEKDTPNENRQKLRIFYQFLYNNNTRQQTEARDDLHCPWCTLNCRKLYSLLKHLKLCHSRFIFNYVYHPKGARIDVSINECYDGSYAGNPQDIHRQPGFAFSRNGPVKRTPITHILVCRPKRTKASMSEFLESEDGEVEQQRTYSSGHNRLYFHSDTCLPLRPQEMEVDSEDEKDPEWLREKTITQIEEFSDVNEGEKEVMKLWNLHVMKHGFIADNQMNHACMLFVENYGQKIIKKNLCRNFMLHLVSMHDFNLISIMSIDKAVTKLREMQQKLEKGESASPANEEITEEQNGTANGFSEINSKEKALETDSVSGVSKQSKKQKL
# Experimental: (§1) Methyltransferase activity assay for WT PRC2 (EED/EZH2/SUZ12) or mutant PRC2-EED-I363M (EED/EZH2/SUZ12) was performed by monitoring the incorporation of tritium-labeled methyl group to lysine 27 of H3 (21–44) peptide using Scintillation Proximity Assay (SPA) or to human nucleosome using a filter-based assay. The enzymatic reactions were performed at 23 °C with 1 hour incubation of 10 µl reaction mixture in 20 mM Tris-HCl, pH 8, 5 mM DTT, and 0.01% Triton X-100 containing 2 µM of ^3H-SAM (Cat.# NET155V250UC; Perkin Elmer; www.perkinelmer.com), 1 µM of biotinylated H3 (21–44), 20 nM PRC2-WT or PRC2-mutant. To stop the reactions, 10 µL of 7.5 M Guanidine hydrochloride was added, followed by 200 µl of buffer (20 mM Tris, pH 8.0), mixed and transferred to a 96-well Streptavidin coated Flash-plate (Cat. # SMP410A001PK, PerkinElmer, http://www.perkinelmer.ca). After mixing, the mixtures in Flash-plate were incubated for 2 hours and the CPM counts were measured using Topcount plate reader (Perkin Elmer, www.perkinelmer.com).
# (§2) The CPM counts in the absence of compound for each dataset were defined as 100% activity. In the absence of the enzyme, the CPM counts in each data set were defined as background (0%). All enzymatic reactions were performed in triplicate and the data were analyzed by GraphPad Prism 7 software.
# (§3) Supplementary Figure S5. Testing the effect of 9 compounds on activity of WT- and EED-I363M mutant PRC2 complexes. Activities of WT- and mutant-PRC2 in the presence of each compound are normalized to activity of each protein complex in the absence of compound as 100%.
# Experiments were performed using 20 nM of each WT or mutant PRC2 trimeric (EED/EZH2/SUZ12) complexes, 2 µM 3H-SAM, 1 µM biotin-H3 (21-44), and up to 100 µM of compounds, 20 mM Tris-HCl pH 8.0, 5 mM DTT and 0.01% Triton X-100.
# Supplementary Figure S6. EC50 determination for activators. The EC50 values were determined […]
# PRC2 mutant (EED/EZH2/SUZ12), 5 µM 3H-SAM, 2 µM biotin-H3 (21-44) and compound concentrations up to 100 µM. Reactions were incubated for 30 min at 23°C in 20 mM Tris-HCl pH 8.0, 5 mM DTT, 0.01% Triton X-100). Experiments were performed in triplicate. Data shown […]
# (§4) Supplementary Figure S7. Determination of kcat values for WT- and EED- I363M mutant trimeric PRC2 complexes in the presence of activators. The kcat values were determined using (A) H3 (21-44) in the presence of 20 µM of each compound or (B) human nucleosome as a substrate in the presence of 200 µM of each compound. Experiments were […]
# (§5) performed in triplicate under the following assay conditions:
# (§6) (A) Peptide as substrate: 20 nM wildtype or EED-I363M mutant PRC2 (EED/EZH2/SUZ12), 2 µM biotinylated-H3 (21-44) peptide, various concentrations of 3H-SAM (up to 5 µM). […]
# (§7) Reactions with both substrates were incubated for 30 min at 23°C in 20 mM Tris-HCl pH 8.0, 5
# PRC2-WT (EED/EZH2/SUZ12) [2] = molecular target: T2, PRC2-WT (EED/EZH2/SUZ12) (Homo sapiens, UniProt O75530+Q15910); assay: Filter-based methyltransferase assay, human nucleosome substrate; type: biochemical; conditions: for kcat, Human nucleosome, PRC2-WT: in the presence of 200 µM compound, nucleosome substrate, mean ± SD, n = 3
# T2 construct: the full lengths of two components of the PRC2 complex, EED(1–441) and EZH2(1–751); EED(1–441) and EZH2(1–751) were cloned into pFastBac-Dual; made in house; host or cells: Sf9 insect cells (baculovirus co-infection)
# T2 sequence (O75530 whole entry): as the sequence (O75530 whole entry I363M) above, with M363I counted along it
# T2 sequence (Q15910 1-751 isoform Q15910-2): as the sequence (Q15910 1-751 isoform Q15910-2, stated change not applied) above
# T2 sequence (Q15022 whole entry partner): as the sequence (Q15022 whole entry partner) above
# Experimental: (§8) Figure 3 Effect of compound 1, 2 and 4 on activity of PRC2-WT and PRC2-EED-I363M. Effect of the selected compounds on activity of PRC2-WT and PRC2-EED-I363M mutant were assessed using human nucleosome as a substrate. Experiments were performed in triplicate using 200 nM of enzyme, 2 µM 3H-SAM and 5 µM human nucleosome and 200 µM compounds incubated for 30 min at 23 °C in 20 mM Tris-HCl pH 8.0, 5 mM DTT, 0.01% Triton X-100.
# (§9) A filter-based assay was used for human nucleosome as a substrate. The reactions were carried out at 23 °C with 0.5 hour incubation of 10 µl reaction mixture in 20 mM Tris-HCl, pH 8, 5 mM DTT, and 0.01% Triton X-100 containing 2 µM of ^3H-SAM (Cat.# NET155V250UC; Perkin Elmer; www.perkinelmer.com), 5 µM of human nucleosome, 200 nM PRC2-WT or PRC2 mutant. To stop the reactions, 50 µl of 10% TCA was added, mixed and transferred to filter-plates (Millipore; Cat.# MSFBN6B10; www.millipore.com). Plates were centrifuged at 2000 rpm (Allegra X-15R - Beckman Coulter, Inc.) for 2 min followed by two additional 10% TCA wash and one ethanol wash (180 µl) followed by centrifugation. Plates were dried and 100 µl MicroO (MicroScint-O; Cat.# 6013611, Perkin Elmer; www.perkinelmer.com) was added to each well, centrifuged and removed. 70 µl of MicroO was added again and CPM was measured using Topcount plate reader.
# as §2, §4
# (§10) performed in triplicate under the following assay conditions: […]
# (§11) (B) Human nucleosome as a substrate: 200 nM wildtype or EED-I363M mutant trimeric PRC2 (EED/EZH2/SUZ12), various concentrations of 3H-SAM (up to 5 µM) and 5 µM human […]
# as §7
# [3] = molecular target: T1, PRC2-EED-I363M (EED/EZH2/SUZ12); assay: as above; type: biochemical; conditions: for increase of PRC2-EED-I363M kcat values: human nucleosomes as substrate; for kcat, Human nucleosome, PRC2-EED-I363M: in the presence of 200 µM compound, nucleosome substrate, mean ± SD, n = 3
# Experimental: as §8, §9, §2, §4, §10, §11, §7
# PRC2-WT (EED/EZH2/SUZ12) [4] = molecular target: T2, PRC2-WT (EED/EZH2/SUZ12); assay: Methyltransferase scintillation proximity assay, H3 (21-44) peptide substrate; type: biochemical; conditions: for effect on catalytic activity of PRC2-WT: H3 peptide substrate, compound up to 100 µM, normalized to activity without compound; for kcat, H3(21–44), PRC2-WT: in the presence of 20 µM compound, peptide substrate, mean ± SD, n = 3
# Experimental: as §1, §2, §3
# Experiments were performed using 20 nM of each WT or mutant PRC2 trimeric (EED/EZH2/SUZ12) complexes, 2 µM 3H-SAM, 1 µM biotin-H3 (21-44), and up to 100 µM of compounds, 20 mM Tris-HCl pH 8.0, 5 mM DTT and 0.01% Triton X-100. […]
# as §4, §5, §6, §7
# wildtype EED = conditions: cited from earlier work
SMILES,EC50 [1] [µM],increase of PRC2-EED-I363M kcat values [1],effect on catalytic activity of PRC2-EED-I363M [1],"kcat, H3(21–44), PRC2-EED-I363M [1] [s⁻¹]","kcat, Human nucleosome, PRC2-WT (PRC2-WT (EED/EZH2/SUZ12) [2]) [s⁻¹]",increase of PRC2-EED-I363M kcat values [3],"kcat, Human nucleosome, PRC2-EED-I363M [3] [s⁻¹]",effect on catalytic activity of PRC2-WT (PRC2-WT (EED/EZH2/SUZ12) [4]),"kcat, H3(21–44), PRC2-WT (PRC2-WT (EED/EZH2/SUZ12) [4]) [s⁻¹]",Kd (wildtype EED) [µM],effect on PRC2-WT catalytic activity (PRC2-WT (EED/EZH2/SUZ12) [2]; human nucleosome as substrate)
CC(C)C[C@H](NC(=O)[C@H](Cc1ccccc1)NC(=O)[C@H](CCCC[N+](C)(C)C)NC(=O)[C@H](CCCNC(=N)N)NC(=O)[C@@H]1CCCN1)C(N)=O [compound 1] (H-PR[Lys(Me3)]FL-NH2),2.3 ± 0.4,more than 2 fold,significant increase,0.00556 ± 0.00028,0.000472 ± 1.4e-05,about 2 fold,0.000361 ± 2.8e-06,minimal effects,0.00694 ± 0.00014,–,–
CC(C)CC(NC(=O)C(Cc1ccccc1)NC(=O)C(CCCC[N+](C)(C)C)NC(=O)C1CC2CCCCC2N1CCCCN)C(N)=O (stereo not drawn) [compound 3],–,–,does not show any activator effect,–,–,–,–,highest inhibition; also recorded: dose-dependent inhibitory potency,–,–,–
"CC(C)C[C@H](NC(=O)[C@H](Cc1ccccc1)NC(=O)[C@H](CCCCN(C)C(C)C)NC(=O)[C@@H]1C[C@@H]2CCCC[C@@H]2N1)C(N)=O [UNC5114, reference compound]",–,–,minimal effects,–,–,–,–,antagonized,–,0.7 to 1.1,–
CC(C)C[C@H](NC(=O)[C@H](Cc1ccccc1)NC(=O)[C@H](CCCC[N+](C)(C)C)NC(=O)[C@H](CCCCN)NC(=O)[C@@H]1CCCN1)C(N)=O [compound 2] (H-PK[Lys(Me3)]FL-NH2),2.4 ± 0.4,more than 2 fold,significant increase,0.00583 ± 0.00028,0.000444 ± 1.1e-05,about 2 fold,0.000417 ± 5.6e-06,minimal effects,0.00667 ± 0.00014,–,weak inhibitor
